In patent publication US12059429B2, “Hornerin: a novel non-VEGF mediated angiogenic protein expressed in both human and mouse angiogenic endothelial cells and human pancreatic cancer cells” (University of Virginia Patent Foundation, priority 2018, dated 2024):
Blank lines part the entries; values can stand above or below the compound they belong to.

How the values were obtained:
[1] = tested on: hornerin; assay: Immunoblot of hornerin in HUVECs treated with growth factors; assay type: cell-based, human; conditions: 24 hours treatment; growth factors at published B-max concentrations, EGF at increasing concentrations
Protocol: HUVECs were cultured in 10 cm dishes for 24 hours prior to a change to media containing VEGF (at B-max concentration), TCM, or VC. After 24 hours treatment, the cells were washed with DPBST two times and lysed with radioimmunoprecipitation assay (RIPA) buffer (Thermo Scientific). Lysate protein concentrations were measured by the bicinchoninic acid assay (Pierce, Waltham, MA, USA) and equivalent amounts of protein were loaded into precast 4-15% tris-glycine eXtended (TGX) polyacrylamide gels (Bio-Rad, Hercules, CA, USA). The proteins were resolved by electrophoresis and transferred to nitrocellulose membranes using the iBlot system (Invitrogen, Carlsbad, CA, USA). The membranes were then washed in Tris-buffered saline+1% Tween-20 (TBST), blocked for 30 minutes in TBST+2% milk solution, and incubated overnight at 4° C. with primary antibodies anti-hornerin (Abcam, Cambridge, UK, ab78909; (1:1000)) and anti-HSP90 (Cell Signaling Technology, Danvers, MA, USA, 4877; (1:1000)). The following day the membranes were washed and subsequently incubated with the secondary antibodies anti-goat HRP (R&D Systems, Minneapolis, MN, USA, HAF109; 1:5000) and anti-rabbit HRP (GE Healthcare, NA934V; 1:5000) for 45 minutes at RT. […]
Major constituents of TCM were determined using a Human Angiogenesis Antibody Array (Affymetrix, Santa Clara, CA, USA) per manufacturer's instructions. […]

[2] = tested on: L3.6pl PDAC cells; assay: Subcutaneous L3.6pl PDAC xenograft tumor volume; assay type: in vivo, mouse
Protocol: A tumor sample size of four was determined by power analysis based on prior tumor xenograft studies. For our 80% power analysis, the difference between means was 200 mm^3, standard deviation was 100 mm^3, and P-value<0.05 (P<0.05). Tumors were measured at least twice weekly until their volume was >1000 mm^3, at which point animals were euthanized. Tumor size data were collected from each tumor, with the exception of one tumor in the combination treatment experiment that was identified with 90% confidence via Grubb's Outlier Test. The following number of mice in each treatment cohort was evaluated for tumor outgrowth: (Scr siRNA/ctrl., N=15; Hrnr siRNA/ctrl., N=14; Scr siRNA/AV-951, N=8; Hrnr siRNA/AV-951, N=8).
For tumor implantation, L3.6pl cells were grown under normal culture conditions for 72 hours prior to being trypsinized and enumerated. The cells were suspended in aliquots of 500,000 cells/50 μL Hanks Balanced Salt Solution (HBSS; Corning, Manassas, VA, USA) and 50 μL of Matrigel (BD Biosciences, San Jose, CA, USA) was added to each aliquot of cells prior to implantation. The cell-Matrigel slurry was injected subcutaneously into nu/nu mice on the flanks or orthotopically into the pancreas (Seaman et al., 2011). The injection site for subcutaneous tumors was monitored daily for growth and tumor volume was calculated form caliper measurements using the formula (width^2×length)/2.
The VEGFR inhibitor AV-951 (Selleck Chemicals, Houston, TX, USA) was suspended in 0.5% methocel+0.5% Tween-20 in HBSS to increase viscosity and 50 μL of 1.0 mg/kg AV-951 or VC solution was administered once daily by oral gavage (22-gauge gavage needle (Kent Scientific, Torrington, CT, USA) connected to a 1 mL syringe). […] To prepare Hrnr siRNA and Silencer Select Negative Control #1 Scr siRNA (Invitrogen; catalog number 4390844) for injection, 10 μg of hornerin or control siRNA were combined with in vivo-jetPEI transfection reagent (Polyplus, France) in solution with 5% glucose per Polyplus instructions (total volume 50 μL). After a 30 minutes incubation, the siRNA solutions were injected slowly into the center of the tumor. A second independent hornerin knockdown experiment was conducted using a pooled set of three unique mouse Hrnr siRNA duplexes (5′-[…]-3′ (SEQ ID NO: 50); 5 ‘-[…]-3’ (SEQ ID NO: 51); 5 ‘-[…]-3’ (SEQ ID NO: 52)) and Scr siRNA (Origene, Rockville, MD, USA). The reagent preparation and injection protocol were similar to that described above.

[3] = tested on: tumor vessels; assay: Tumor vessel parameters in L3.6pl tumor sections (CD34, ACTA2, RAVE analysis); assay type: in vivo, mouse; conditions: four-group combination experiment, vs control
Protocol: Following completion of the treatment schedule, the mice were killed, cardiac perfused, and the tumors were excised and fixed in formalin overnight. The tumors were paraffin embedded and cut into 5 (thin) or 50 μm (thick) sections. Tumor vessel parameters were evaluated in the following number of tumors for each treatment cohort: (Scr siRNA/ctrl., N=10; Hrnr siRNA/ctrl., N=10; Scr siRNA/AV-951, N=4; Hrnr siRNA/AV-951, N=4).
Tumor sections were deparaffinized, rehydrated, heated in antigen retrieval solution (Vector), blocked for 30 minutes in blocking buffer, and incubated with anti-CD34 antibody (Abcam, ab8158, clone MEC14.7; 1:100) in blocking buffer overnight at 4° C. The sections were then incubated with goat anti-rat FITC secondary antibody (Abcam, ab6840; 1:100) in blocking buffer prior to mounting with Prolong Gold Antifade reagent (Invitrogen). Anti-actin, α-smooth muscle Cy3 antibody (Sigma, C6198, clone 1A4; 1:200) was added to the primary antibody solution if assaying for alpha-smooth muscle actin. To compare hornerin expression in vessels and tumor tissue treated with Hrnr siRNA and Scr siRNA, thin paraffin sections were deparaffinized and stained with anti-CD34 and anti-hornerin antibodies described. Images were collected using a Nikon TE 2000-E2 microscope (Nikon Instruments) equipped with a Melles Griot Argon Laser System (Melles Griot, Carlsbad, CA, USA) and a Nikon D-Eclipse C1 confocal attachment and analyzed by Measurement Tool in Image J. To measure the relative hornerin expression in tumor vessels, three vessel segments per image were isolated and their mean intensity and area were measured and recorded. A weighted mean intensity was calculated to correct for differences in selected area. To measure the relative hornerin expression in tumor tissue, the mean intensity from three square sections (75×75 pixel) of tumor tissue per image was measured and recorded.
(§1) Vessel parameters were measured using RAVE software (Seaman et al., 2011). For detection of proliferation and apoptosis, the sections were incubated with the primary antibodies anti-Ki67 (Abcam, ab15580; 1:200) or anti-cleaved caspase 3 (Cell Signaling, 9661; 1:200), respectively, overnight at 4° C. followed by incubation with anti-rabbit AF594 (Abcam, 150080; 1:200).

[4] = tested on: tumor vascularity; assay: DCE-MRI and Ktrans measurement of L3.6pl tumors; assay type: in vivo, mouse; conditions: AV-951 1.0 mg/kg once daily oral gavage; AV-951 only vs control; combination vs AV-951
Protocol: To assess the in vivo function of tumor vascularity, DCE-MRI was performed on a 7.0 T Clinscan small animal imaging system (Bruker, Ettlingen, Germany) using a 30 mm inner-diameter birdcage radiofrequency coil. Mice (N=7) were imaged prior to treating tumors with Hrnr and Scr siRNA and again 6 days after treatment. Mice treated with the VEGFR inhibitor AV-951 (N=5) were image pre-siRNA treatment and 6 days posttreatment. Mice were anesthetized with 1.25% isoflurane anesthesia, which was maintained during imaging. Respiration and ECG were monitored during imaging using an MRI-compatible system (SA Instruments, Stony Brook, NY, USA). An indwelling tail vein catheter was established for administration of the gadolinium contrast agent Gd-DTPA, which is required in DCE imaging. Mice were placed supine in the imaging system, and body temperature was maintained at 36° C.±1° C. using circulating, temperature controlled water. Tumors were localized using a spin-echo imaging sequence, and an imaging plane that transected both tumors was chosen for DCE imaging.
A dual-Gd-bolus DCE-MRI acquisition strategy (Christian et al., 2004) was employed, which uses a low dose of contrast agent to accurately acquire the undistorted Gd concentration vs. time curve in the blood pool and a higher dose of contrast agent to acquire the Gd concentration vs. time curve in the tumor with high signal-to-noise ratio, since Gd-DTPA is known to have signal saturation effects at high doses in the blood pool (Christian et al., 2004). […]

[5] = tested on: L3.6pl tumors; assay: Ki67 and cleaved caspase 3 immunofluorescence in tumor sections; assay type: in vivo, mouse; conditions: day 15 tumor sections
Protocol: as §1

[6] = tested on: tumor vasculature; assay: Photoacoustic microscopy of tumor vasculature; assay type: in vivo, mouse; conditions: day 12
Source text: Using an established PAM system (Wang & Hu, 2012; Ning et al., 2015a; Ning et al., 2015b), the tumor vasculature was characterized in vivo. Two laser wavelengths, 532 and 559 nm, were used to simultaneously quantify microvascular diameter, oxygen saturation, and blood flow at the same spatial scale (Ning et al., 2015a). The applied optical energies were 100 and 75 nJ, which are below the maximum permissible exposure energy. Throughout the experiment, mice were maintained under anesthesia with 1.5% vaporized isoflurane and the body temperature was kept at 37° C. All experimental procedures were carried out in conformity with the laboratory animal protocol approved by the Animal Care and Use Committee at the University of Virginia.

Compound: bFGF: growth factor found in TCM, added to HUVECs at published B-max concentration
hornerin expression in HUVECs [1]: might stimulate hornerin expression

cleaved caspase 3 levels in tumors relative to control [5]: two-fold increase
Compound: COc1cc2nccc(Oc3ccc(NC(=O)Nc4cc(C)on4)c(Cl)c3)c2cc1OC [AV-951, 1-[2-chloro-4-(6,7-dimethoxyquinolin-4-yl)oxyphenyl]-3-(5-methyl-1,2-oxazol-3-yl)urea, reference compound]
tumor volume decrease compared to control-treated animals ([2]; day 5 post implantation, 1.0 mg/kg AV-951 once daily oral gavage): 2.3 fold
reduction in tumor volume (discussion summary) ([2]; monotherapy or combined therapies): two-fold
number of vessels per field [3]: fewer vessels were observed
vessel morphology [3]: morphologically similar to control vessels
Ktrans values (in words) [4]: decrease
tumor blood hemoglobin levels [6]: remained unchanged
tumor blood oxygen saturation compared to control [6]: 1.5 fold
